According to ChEMBL document CHEMBL3044730, “Synthesis, antimycobacterial, antiviral, antimicrobial activities, and QSAR studies of nicotinic acid benzylidene hydrazide derivatives” (Med Chem Res, 2012):
In brackets after ≈: the same amount, converted by molar mass.

How the values were obtained:
[1] = tested on: Respiratory syncytial virus; experiment: Antiviral activity against Respiratory syncytial virus infected human HeLa cells assessed as inhibition of virus-induced cytopathicity by microscopy; assay type: functional, organism-based
[2] = tested on: Human herpesvirus 3 strain Oka vaccine; experiment: Antiviral activity against Human herpesvirus 3 strain Oka vaccine OKA 07-1 (Varicella zoster virus) infected in human HEL cells assessed as inhibition of virus-induced cytopathicity; assay type: functional, organism-based; conditions: Human alphaherpesvirus 3, OKA 07-1, HEL
Staphylococcus aureus = experiment: Antimicrobial activity against Staphylococcus aureus after 24 hr by serial dilution method; assay type: functional; parameters: unit not given here
Candida albicans [3] = experiment: Antimicrobial activity against Candida albicans after 2 days by serial dilution method; assay type: functional; parameters: unit not given here
Escherichia coli = experiment: Antimicrobial activity against Escherichia coli after 24 hr by serial dilution method; assay type: functional; parameters: unit not given here
Sindbis virus = experiment: Antiviral activity against Sindbis virus infected Vero cells assessed as inhibition of virus-induced cytopathicity; assay type: functional, organism-based
[4] = tested on: Human immunodeficiency virus 2; experiment: Antiviral activity against Human immunodeficiency virus type 2 (ISOLATE ROD) infected MT4 cells assessed as inhibition of virus-induced cytopathic effect after 4 days by MTT assay; assay type: functional, organism-based; conditions: Human immunodeficiency virus 2, ISOLATE ROD, MT4, 96 h
[5] = Cytotoxicity against Chlorocebus aethiops (African green monkey) Vero cells assessed as alteration in cell morphology by microscopy; assay type: cell-based; conditions: chlorocebus sabaeus
Human alphaherpesvirus 1 [6] = experiment: Antiviral activity against Human herpesvirus 1 strain KOS infected in human HEL cells assessed as inhibition of virus-induced cytopathicity by microscopy by microscopy; assay type: functional, organism-based; conditions: Human alphaherpesvirus 1, KOS
[7] = Cytotoxicity against Homo sapiens (human) HEL cells assessed as alteration in cell morphology by microscopy; assay type: cell-based
Bacillus subtilis = experiment: Antimicrobial activity against Bacillus subtilis after 24 hr by serial dilution method; assay type: functional; parameters: unit not given here
Candida albicans [8] = experiment: Antimicrobial activity against Candida albicans after 7 days by serial dilution method; assay type: functional; parameters: unit not given here
Coxsackievirus B4 [9] = experiment: Antiviral activity against Human coxsackievirus B4 infected Vero cells assessed as inhibition of virus-induced cytopathicity; assay type: functional, organism-based; conditions: Enterovirus B
[10] = Cytotoxicity against Homo sapiens (human) MT4 cells after 4 days by MTT assay; assay type: cell-based
Vaccinia virus = experiment: Antiviral activity against Vaccinia virus infected human HEL cells assessed as inhibition of virus-induced cytopathicity by microscopy; assay type: functional, organism-based; conditions: Orthopoxvirus vaccinia
Human alphaherpesvirus 2 = experiment: Antiviral activity against Human herpesvirus 2 strain G infected human HEL cells assessed as inhibition of virus-induced cytopathicity by microscopy; assay type: functional, organism-based; conditions: Human alphaherpesvirus 2, strain G
Human alphaherpesvirus 1 [11] = experiment: Antiviral activity against TK(-) aciclovir-resistant Human herpesvirus 1 strain KOS infected in human HEL cells assessed as inhibition of virus-induced cytopathicity; assay type: functional, organism-based; conditions: Human alphaherpesvirus 1, KOS
[12] = tested on: Vesicular stomatitis virus; experiment: Antiviral activity against Vesicular stomatitis virus infected human HeLa cells assessed as inhibition of virus-induced cytopathicity by microscopy; assay type: functional, organism-based
Human respirovirus 3 = experiment: Antiviral activity against Human parainfluenza virus 3 infected Vero cells assessed as inhibition of virus-induced cytopathicity by microscopy; assay type: functional, organism-based; conditions: Human respirovirus 3, Vero
[13] = Cytotoxicity against Homo sapiens (human) HeLa cells assessed as alteration in cell morphology by microscopy; assay type: cell-based
[14] = tested on: Human immunodeficiency virus 1; experiment: Antiviral activity against Human immunodeficiency virus 1 IIIB infected MT4 cells assessed as inhibition of virus-induced cytopathic effect after 4 days by MTT assay; assay type: functional, organism-based; conditions: MT4, 96 h
[15] = tested on: Mammalian orthoreovirus 1; experiment: Antiviral activity against Mammalian orthoreovirus 1 infected Vero cells assessed as inhibition of virus-induced cytopathicity by microscopy; assay type: functional, organism-based; conditions: Mammalian orthoreovirus 1, Vero
[16] = tested on: Human herpesvirus 5 strain AD169; experiment: Antiviral activity against Human herpesvirus 5 strain AD169 Davis infected human HEL cells assessed as inhibition of virus-induced cytopathicity by microscopy; assay type: functional, organism-based; conditions: Human betaherpesvirus 5, Davis
Punta Toro virus = experiment: Antiviral activity against Punta Toro virus infected Vero cells assessed as inhibition of virus-induced cytopathicity; assay type: functional, organism-based
[17] = tested on: Mycobacterium tuberculosis; experiment: Antimicrobial activity against Mycobacterium tuberculosis by agar dilution method; assay type: functional
Coxsackievirus B4 [18] = experiment: Antiviral activity against Human coxsackievirus B4 infected human HeLa cells assessed as inhibition of virus-induced cytopathicity by microscopy; assay type: functional, organism-based; conditions: Enterovirus B

SMILES	EC50 [1] [µg/mL]	EC50 [2] [µg/mL]	-logMIC (Staphylococcus aureus)	-logMIC (Candida albicans [3])	-logMIC (Escherichia coli)	EC50 (Sindbis virus) [µg/mL]	EC50 [4] [µg/mL]	MCC [5] [µg/mL]	EC50 (Human alphaherpesvirus 1 [6]) [µg/mL]	CC50 [7] [µg/mL]	MCC [7] [µg/mL]	-logMIC (Bacillus subtilis)	-logMIC (Candida albicans [8])	EC50 (Coxsackievirus B4 [9]) [µg/mL]	CC50 at 96 h [10] [µg/mL]	EC50 (Vaccinia virus) [µg/mL]	EC50 (Human alphaherpesvirus 2) [µg/mL]	EC50 (Human alphaherpesvirus 1 [11]) [µg/mL]	EC50 [14] [µg/mL]	MIC [17] [µg/mL]	other results
O=C(N/N=C/c1ccccc1)c1cccnc1 [NICOTINIC ACID BENZYLIDENE-HYDRAZIDE]	> 20	> 100	0.35	1.25	1.26	> 100	> 125	> 100	> 100	> 100	> 100	0.95	1.86	> 100	> 125	> 100	> 100	> 100	> 125	> 25	EC50 [12]: > 20 µg/mL; EC50 (Human respirovirus 3): > 100 µg/mL; MCC [13]: 100 µg/mL; EC50 [15]: > 100 µg/mL; EC50 [16]: > 100 µg/mL; EC50 (Punta Toro virus): > 100 µg/mL; EC50 (Coxsackievirus B4 [18]): > 20 µg/mL
CC[C@@H](CO)NCCN[C@@H](CC)CO [ETHAMBUTOL]																				1.56 (≈ 7.64 µM)	
O=C(N/N=C/c1cccc(Cl)c1)c1cccnc1	> 100	> 100	1.32	1.32	1.02	> 100	> 62	> 100	> 100	53 (≈ 204 µM)	> 100	1.02	1.92	> 100	62 (≈ 239 µM)	> 100	> 100	> 100	> 62	> 25	EC50 [12]: > 100 µg/mL; EC50 (Human respirovirus 3): > 100 µg/mL; MCC [13]: > 100 µg/mL; EC50 [15]: 34 µg/mL (≈ 131 µM); EC50 [16]: > 100 µg/mL; EC50 (Punta Toro virus): > 100 µg/mL; EC50 (Coxsackievirus B4 [18]): > 100 µg/mL
O=C(N/N=C/c1ccccc1Cl)c1cccnc1	> 20	> 100	1.32	1.32	1.02	> 100	> 0.57	> 100	> 100	12 (≈ 46.2 µM)	> 100	1.02	1.32	> 100	≥ 0.57	> 100	> 100	> 100	> 0.57	> 25	EC50 [12]: > 20 µg/mL; EC50 (Human respirovirus 3): > 100 µg/mL; MCC [13]: 100 µg/mL; EC50 [15]: > 100 µg/mL; EC50 [16]: > 100 µg/mL; EC50 (Punta Toro virus): > 100 µg/mL; EC50 (Coxsackievirus B4 [18]): > 20 µg/mL
CCn1cc(C(=O)O)c(=O)c2cc(F)c(N3CCNCC3)cc21 [NORFLOXACIN]			2.61		2.61							2.61									
NNC(=O)c1cccnc1 [NICOTINIC ACID HYDRAZIDE]			0.74	1.04	0.74							1.04	1.04								
O=C(N/N=C/c1cccc([N+](=O)[O-])c1)c1cccnc1	> 4	> 100	1.33	1.33	1.94	> 100	> 54	≥ 100	> 100	13 (≈ 48.1 µM)	> 100	1.64	1.64	> 100	54 (≈ 200 µM)	> 100	> 100	> 100	> 54	> 25	EC50 [12]: > 4 µg/mL; EC50 (Human respirovirus 3): > 100 µg/mL; MCC [13]: 20 µg/mL; EC50 [15]: > 100 µg/mL; EC50 [16]: > 20 µg/mL; EC50 (Punta Toro virus): > 100 µg/mL; EC50 (Coxsackievirus B4 [18]): > 4 µg/mL
O=C(N/N=C/c1ccc(Br)cc1)c1cccnc1	> 100	> 100	1.09	1.39	1.39	> 100	> 61	> 100	> 100	48 (≈ 158 µM)	> 100	1.39	1.39	> 100	61 (≈ 201 µM)	> 100	> 100	> 100	> 61	25 (≈ 82.2 µM)	EC50 [12]: > 100 µg/mL; EC50 (Human respirovirus 3): > 100 µg/mL; MCC [13]: > 100 µg/mL; EC50 [15]: > 100 µg/mL; EC50 [16]: > 100 µg/mL; EC50 (Punta Toro virus): > 100 µg/mL; EC50 (Coxsackievirus B4 [18]): > 100 µg/mL
O=C(N/N=C/c1ccc(Cl)cc1)c1cccnc1	> 100	> 100	1.32	1.32	1.32	> 100	> 76	> 100	> 100	29 (≈ 112 µM)	> 100	1.02	1.92	> 100	76 (≈ 293 µM)	> 100	> 100	> 100	> 76	25 (≈ 96.3 µM)	EC50 [12]: > 100 µg/mL; EC50 (Human respirovirus 3): > 100 µg/mL; MCC [13]: > 100 µg/mL; EC50 [15]: > 100 µg/mL; EC50 [16]: > 100 µg/mL; EC50 (Punta Toro virus): > 100 µg/mL; EC50 (Coxsackievirus B4 [18]): > 100 µg/mL
Cc1ccnc2c1NC(=O)c1cccnc1N2C1CC1 [NEVIRAPINE]							4 (≈ 15 µM)								> 4				0.05 (≈ 0.188 µM)		
O=C(O)c1cn(C2CC2)c2cc(N3CCNCC3)c(F)cc2c1=O [CIPROFLOXACIN]																				3.13 (≈ 9.45 µM)	
NNC(=O)c1ccncc1 [ISONIAZID]																				0.1 (≈ 0.729 µM)	
Cc1cn([C@H]2C[C@H](N=[N+]=[N-])[C@@H](CO)O2)c(=O)[nH]c1=O [ZIDOVUDINE]							0.0009 (≈ 0.00337 µM)								> 2.5						
OC(Cn1cncn1)(Cn1cncn1)c1ccc(F)cc1F [FLUCONAZOLE]				2.64									2.64								
